One test has as its system Hs578T. Description: normalised viability (% of control), CellTiter-Blue; higher = more viable cells (about 100 = DMSO control). As to conditions: incubation time: 72 h. The essentials: (§1)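 Plates were quality-checked by Z'-factor and normalised to vehicle (100) and a positive kill control (0). The underlying assay incubated breast cancer cell lines for 72 h on 384-well plates with compound, then added 2.5 µl CellTiter-Blue for 2 h at 37 °C and read at 560/590 nm. The value is normalised viability at a single listed concentration of the series.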
Background: Resazurin is reduced to fluorescent resorufin, in cell work by metabolically active cells.

The next test has as its system HCC1143. The description is as above. The following applies: incubation time: 72 h. Put shortly:
as §1

Several values for one entry are separate records, joined by “and”; a condition that tells them apart may be missing. Identical values can stand only once.

`COc1ccc(-c2cc3c(C)nc(N)nc3n([C@H]3CC[C@H](OCCO)CC3)c2=O)cn1`: the normalised viability in the test with Hs578T (10 nM) stood at 96.1%; in the test with Hs578T (1000 nM), 17.9%; with Hs578T (10000 nM), 3.2%; in the test with HCC1143 (100 nM), 92.8%.
Regarding `Cc1cccc(-c2nn3c(c2-c2ccnc4ccc(C(N)=O)cc24)CCC3)n1`, the normalised viability was found to be 106% in the test with Hs578T (1 nM), 112% in the test with Hs578T (100 nM), 89.9% in the test with Hs578T (1000 nM) and 91% in the test with HCC1143 (10 nM).
Taken in the same sequence, the figures for `Cn1cc(CNCC2CCN(c3ncc(C(=O)NO)cn3)CC2)c2ccccc21` were 128%, 39.3%, 5.1% and 64.8%.
Turning to `O=C(NC[C@H](O)CO)c1ccncc1Nc1ccc(I)cc1F`, the normalised viability with Hs578T (10 nM) is 114%; in the test with Hs578T (1000 nM) it was 95.3%; in the test with Hs578T (10000 nM), 67.4%; with HCC1143 (100 nM), 66%.
For the molecule `Nc1nc(=O)c2c([nH]1)NCC(CNc1ccc(C(=O)N[C@@H](CCC(=O)O)C(=O)O)cc1)N2C=O` (mixture of isomers) [Folinic acid], the normalised viability was determined as 92.2% with Hs578T (0.99 nM), 102% with Hs578T (99 nM), 96.3% in the test with Hs578T (990 nM) and 86.1% in the test with HCC1143 (9.9 nM).
As to `O=C(Nc1c[nH]nc1-c1nc2ccc(CN3CCOCC3)cc2[nH]1)NC1CC1` [AT9283], the normalised viability with Hs578T (10 nM) was determined as 124%; in the test on Hs578T (1000 nM) it was 33.9%; in the test with Hs578T (10000 nM), 1.79%; in the test with HCC1143 (100 nM) it was 72.8%.
Take `COc1cc(CCc2cc(NC(=O)c3ccc(N4CC(C)NC(C)C4)cc3)n[nH]2)cc(OC)c1` (stereo not given) [AZD4547]: the normalised viability in the test on Hs578T (1 nM) turned out to be 102%; with Hs578T (100 nM), 91.2%; in the test with Hs578T (1000 nM), 122%; with HCC1143 (10 nM), 86.9%.
For the molecule `CCC/C=C/C=C/C(=O)O[C@H]1/C(=C/C(=O)OC)C[C@H]2C[C@H]([C@@H](C)O)OC(=O)C[C@H](O)C[C@@H]3C[C@H](OC(C)=O)C(C)(C)[C@](O)(C[C@@H]4C/C(=C/C(=O)OC)C[C@H](/C=C/C(C)(C)[C@]1(O)O2)O4)O3` [Bryostatin 1], the normalised viability with Hs578T (0.1 nM) was determined as 95.1%; with Hs578T (10 nM) it was 97%; in the test with Hs578T (100 nM), 106%; in the test with HCC1143 (1 nM), 81.2%.
In the case of `CO[C@@H](C(=O)N1Cc2[nH]nc(NC(=O)c3ccc(N4CCN(C)CC4)cc3)c2C1)c1ccccc1` [Danusertib], the normalised viability with Hs578T (10 nM) came to 95.4%; in the test on Hs578T (1000 nM) it was 59.3%; in the test on Hs578T (10000 nM) it was 23.9%; in the test with HCC1143 (100 nM), 87.4%.
The matching figures for `O=S(=O)(c1cccc2cnccc12)N1CCCNCC1` [Fasudil]: 98.4%, 114%, 116% and 87.2%.
Taken in the same sequence, the figures for `CS(=O)(=O)N1CCN(Cc2cc3nc(-c4cccc5[nH]ncc45)nc(N4CCOCC4)c3s2)CC1` [GDC-0941] were 112%, 62.3%, 19.6% and 81.9%.
With `Cc1c(CN2CCN(C(=O)[C@H](C)O)CC2)sc2c(N3CCOCC3)nc(-c3cnc(N)nc3)nc12` [GDC-0980], the normalised viability with Hs578T (10 nM) is 121%; in the test on Hs578T (1000 nM), 28.9%; in the test with Hs578T (10000 nM) it was 17.1%; in the test with HCC1143 (100 nM) it was 71.5%.
As to `Nc1cccc2c1CN(C1CCC(=O)NC1=O)C2=O` (stereo not given) [Lenalidomide], the normalised viability with Hs578T (10 nM) was 107% and 99.5%; with Hs578T (1000 nM), 111% and 97.7%; with Hs578T (10000 nM), 100% and 95.5%; with HCC1143 (100 nM) it was 81.8% and 68%.
Take `C[C@]12O[C@H](C[C@]1(O)CO)n1c3ccccc3c3c4c(c5c6ccccc6n2c5c31)CNC4=O` [Lestaurtinib]: the normalised viability came to 110% with Hs578T (1 nM), 122% in the test with Hs578T (100 nM), 63.3% with Hs578T (1000 nM) and 113% with HCC1143 (10 nM).
As for `O=C1c2c(O)ccc(O)c2C(=O)c2c(NCCNCCO)ccc(NCCNCCO)c21` [Mitoxantrone], the normalised viability with Hs578T (1 nM) worked out at 91.6%; in the test on Hs578T (100 nM), 77.5%; in the test on Hs578T (1000 nM), 38.4%; in the test on HCC1143 (10 nM), 66.9%.
On to `Nc1ccccc1NC(=O)c1ccc(CNc2nccc(-c3cccnc3)n2)cc1` [Mocetinostat], for which the normalised viability was 96.8% in the test on Hs578T (10 nM), 81.4% in the test on Hs578T (1000 nM), 12.6% with Hs578T (10000 nM) and 81.5% in the test with HCC1143 (100 nM).
Taken in the same sequence, the figures for `Cc1ccc(Nc2nccc(N(C)c3ccc4c(C)n(C)nc4c3)n2)cc1S(N)(=O)=O` [Pazopanib] were 117%, 98.1%, 90.8% and 85.8%.
The matching figures for `O=C(CCBr)N1CCN(C(=O)CCBr)CC1` [Pipobroman]: 107%, 97%, 95.8% and 87.8%.
Turning to `c1cc(CN2CCCNCCNCCCNCC2)ccc1CN1CCCNCCNCCCNCC1` [Plerixafor], the normalised viability with Hs578T (2.5 nM) worked out at 117%; in the test with Hs578T (250 nM), 97.3%; in the test on Hs578T (2500 nM) it was 102%; with HCC1143 (25 nM), 83.4%.
Consider `C[C@]12C=CC(=O)C=C1CC[C@@H]1[C@@H]2[C@@H](O)C[C@@]2(C)[C@H]1CC[C@]2(O)C(=O)CO` [Prednisolone], for which the normalised viability in the test on Hs578T (10 nM) was determined as 111%; in the test on Hs578T (1000 nM), 107%; in the test on Hs578T (10000 nM) it was 107%; in the test with HCC1143 (100 nM), 97.8%.

These data come from the supplement of paper PMC4862054.
